Results as given in patent US11884661B2, “3-substituted propionic acids as αV integrin inhibitors” (BRISTOL-MYERS SQUIBB COMPANY, priority 2016, dated 2024).

Target: T1, human αVβ6 (Homo sapiens, UniProt P06756+P18564)
T1 construct: purchased R & D systems 3817-AV
Test: human αVβ6 HTRF binding assay
Conditions: recombinant human αVβ6 integrin, FITC-conjugated fibronectin
Description: All binding assays used the HTRF (homogeneous time resolved fluorescence) technology from Cisbio International, therefore all assays are described as HTRF binding assays. The assay results for the Examples are listed above together with the characterization data. The HTRF binding assays are established for the following integrins: human αVβ6, human αVβ1, human αVβ3, human αVβ5, and human αVβ8. All assays used the following assay buffer: 20 mM Tris, pH 7.4, 1 mM MgCl2, 1 mM MnCl2, 0.01% Tween 20, and 0.01% BSA. Alternatively, a SPA-based assay was used for evaluation of receptor binding.
The following describes the components and a representative procedure for the human αVβ6 HTRF binding assay: Recombinant human αVβ6 Integrin (R & D systems, 3817-AV) was biotinylated. Biotinylated human αVβ6 Integrin was added to assay vessel at a final concentration of 1.25 nM. FITC-conjugated fibronectin (Cytoskeleton, FNR02) was then added at the final concentration of 5 nM. The mixture was centrifuged at 600 rpm for three minutes using Thermo Fisher Heraeus Multifuge X3 centrifuge and then incubated at RT for an hour. Streptavidin Terbium (Cisbio international 610STLB) was then added at the final concentration of 0.625 nM. The resulting mixture was centrifuged at 600 rpm for three minutes using Thermo Fisher Heraeus Multifuge X3 centrifuge and then incubated at room temperature overnight in dark before reading HTRF signals.

T1 sequence (P06756 31-992 limits assumed): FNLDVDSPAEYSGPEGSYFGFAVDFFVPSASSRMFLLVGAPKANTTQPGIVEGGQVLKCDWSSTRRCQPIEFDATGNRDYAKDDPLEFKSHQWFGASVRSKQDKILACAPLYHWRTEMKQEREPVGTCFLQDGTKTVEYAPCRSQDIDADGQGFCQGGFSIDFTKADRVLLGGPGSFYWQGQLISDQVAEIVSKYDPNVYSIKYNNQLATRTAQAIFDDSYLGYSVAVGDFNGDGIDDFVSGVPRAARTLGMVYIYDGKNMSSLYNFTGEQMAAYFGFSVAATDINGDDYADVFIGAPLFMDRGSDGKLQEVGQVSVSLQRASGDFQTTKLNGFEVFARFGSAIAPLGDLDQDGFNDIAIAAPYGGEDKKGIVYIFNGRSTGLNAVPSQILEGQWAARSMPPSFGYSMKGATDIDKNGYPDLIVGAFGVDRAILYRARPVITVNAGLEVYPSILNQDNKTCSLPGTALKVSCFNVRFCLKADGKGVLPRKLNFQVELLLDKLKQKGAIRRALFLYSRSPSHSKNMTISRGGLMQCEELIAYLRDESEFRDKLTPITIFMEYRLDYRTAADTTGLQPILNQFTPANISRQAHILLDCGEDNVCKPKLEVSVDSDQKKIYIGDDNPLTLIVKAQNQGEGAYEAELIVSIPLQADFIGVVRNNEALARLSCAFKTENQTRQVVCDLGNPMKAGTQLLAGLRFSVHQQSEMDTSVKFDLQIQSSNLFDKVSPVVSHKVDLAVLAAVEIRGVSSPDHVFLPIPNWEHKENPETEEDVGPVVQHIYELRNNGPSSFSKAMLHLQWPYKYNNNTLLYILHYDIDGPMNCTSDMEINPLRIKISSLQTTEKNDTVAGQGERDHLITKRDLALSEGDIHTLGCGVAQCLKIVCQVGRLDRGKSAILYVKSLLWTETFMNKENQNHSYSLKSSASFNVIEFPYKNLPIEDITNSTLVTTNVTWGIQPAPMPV
T1 sequence (P18564 22-707 limits assumed): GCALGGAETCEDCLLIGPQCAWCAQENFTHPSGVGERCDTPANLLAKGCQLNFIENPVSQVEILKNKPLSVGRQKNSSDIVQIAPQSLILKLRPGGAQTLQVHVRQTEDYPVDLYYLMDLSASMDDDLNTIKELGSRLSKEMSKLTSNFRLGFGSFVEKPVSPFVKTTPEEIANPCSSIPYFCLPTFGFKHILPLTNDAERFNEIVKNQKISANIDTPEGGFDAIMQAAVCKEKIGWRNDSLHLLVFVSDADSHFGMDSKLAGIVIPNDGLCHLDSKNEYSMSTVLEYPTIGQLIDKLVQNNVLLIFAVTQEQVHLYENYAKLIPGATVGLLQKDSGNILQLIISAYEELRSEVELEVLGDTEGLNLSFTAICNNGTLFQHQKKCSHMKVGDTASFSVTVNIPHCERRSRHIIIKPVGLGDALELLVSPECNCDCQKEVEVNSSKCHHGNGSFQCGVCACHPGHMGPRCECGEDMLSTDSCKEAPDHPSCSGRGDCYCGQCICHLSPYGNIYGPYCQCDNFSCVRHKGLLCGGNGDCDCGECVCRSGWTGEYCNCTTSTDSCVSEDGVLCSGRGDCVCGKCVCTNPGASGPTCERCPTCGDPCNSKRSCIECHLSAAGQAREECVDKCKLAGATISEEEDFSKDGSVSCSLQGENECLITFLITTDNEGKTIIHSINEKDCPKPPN

SMILES | IC50
CN(C)C(=O)c1ccc(C(CC(=O)O)c2nc(CCCCc3ccc4c(n3)NCCC4)cs2)cc1 (single isomer, unassigned) [Example 128, 3-(4-(dimethylcarbamoyl)phenyl)-3-(4-(4-(5,6,7,8-tetrahydro-1,8-naphthyridin-2-yl)butyl)thiazol-2-yl)propanoic acid] | 4.3 nM
COc1ccc(C(CC(=O)O)c2nc(CCCCc3ccc4c(n3)NCCC4)cn2C)cc1F (single isomer, unassigned) [Example 169, 3-(3-fluoro-4-methoxyphenyl)-3-(1-methyl-4-(4-(5,6,7,8-tetrahydro-1,8-naphthyridin-2-yl)butyl)-1H-imidazol-2-yl)propanoic acid] | 67 nM
O=C(O)CC(c1cc(Cl)cc(Cl)c1)n1nccc1CCCc1ccc2c(n1)NCCC2 (racemic) [Example 75, (±)-3-(3,5-dichlorophenyl)-3-{5-[3-(5,6,7,8-tetrahydro-1,8-naphthyridin-2-yl)propyl]-1H-pyrazol-1-yl}propanoic acid] | 28 nM
COc1ccc(C(CC(=O)O)c2nc(CCCC3CCc4cccnc4N3)cs2)cn1 (single isomer, unassigned) [Example 156, 3-(6-methoxypyridin-3-yl)-3-(4-(3-(1,2,3,4-tetrahydro-1,8-naphthyridin-2-yl)propyl)thiazol-2-yl)propanoic acid] | 260 nM
COc1ccc(C(CC(=O)O)c2csc(CCCc3ccc4c(n3)NCCC4)n2)cc1F (stereo not drawn) [Example 153, 3-(3-fluoro-4-methoxyphenyl)-3-(2-(3-(5,6,7,8-tetrahydro-1,8-naphthyridin-2-yl)propyl)thiazol-4-yl)propanoic acid] | 54 nM
CN(C)C(=O)c1ccc(C(CC(=O)O)c2nc(CCCCc3ccc4c(n3)NCCC4)cs2)cc1F (single isomer, unassigned) [Example 131, 3-(4-(dimethylcarbamoyl)-3-fluorophenyl)-3-(4-(4-(5,6,7,8-tetrahydro-1,8-naphthyridin-2-yl)butyl)thiazol-2-yl)propanoic acid] | 2.3 nM
CN(C)C(=O)c1cccc(C(CC(=O)O)c2nc(CCCc3ccc4c(n3)NCCC4)cs2)c1 (single isomer, unassigned) [Example 139, 3-(3-(dimethylcarbamoyl)phenyl)-3-(4-(3-(5,6,7,8-tetrahydro-1,8-naphthyridin-2-yl)propyl)thiazol-2-yl)propanoic acid] | 34 nM
CN(C)C(=O)c1cccc(C(CC(=O)O)c2nc(CCCCc3ccc4c(n3)NCCC4)cs2)c1 (single isomer, unassigned) [Example 117, 3-(3-(dimethylcarbamoyl)phenyl)-3-(4-(4-(5,6,7,8-tetrahydro-1,8-naphthyridin-2-yl)butyl)thiazol-2-yl)propanoic acid] | 76 nM
COc1ccc(C(CC(=O)O)n2ncc(CCCc3ccc4c(n3)NCCC4)n2)cc1F (single isomer, unassigned) [Example 173, 3-(3-fluoro-4-methoxyphenyl)-3-(4-(3-(5,6,7,8-tetrahydro-1,8-naphthyridin-2-yl)propyl)-2H-1,2,3-triazol-2-yl)propanoic acid] | 3 nM
O=C(NC(Cc1cnn(CCc2ccc3c(n2)NCCC3)c1)C(=O)O)OCc1ccccc1 (racemic) [Example 5, (±)-2-(((Benzyloxy)carbonyl)amino)-3-(1-(2-(5,6,7,8-tetrahydro-1,8-naphthyridin-2-yl)ethyl)-1H-pyrazol-4-yl)propanoic acid] | 5000 nM
Cc1cc(C)c(S(=O)(=O)NC(Cc2cnn(CCCc3ccc4c(n3)NCCC4)c2)C(=O)O)c(C)c1 (racemic) [Example 25, (±)-3-(1-(3-(5,6,7,8-Tetrahydro-1,8-naphthyridin-2-yl)propyl)-1H-pyrazol-4-yl)-2-((2,4,6-trimethylphenyl)sulfonamido)propanoic acid] | 395 nM
CN(C)C(=O)c1cncc(C(CC(=O)O)n2ccc(CCCc3ccc4c(n3)NCCC4)n2)c1 (racemic) [Example 74, (±)-3-[5-(dimethylcarbamoyl)pyridin-3-yl]-3-{3-[3-(5,6,7,8-tetrahydro-1,8-naphthyridin-2-yl)propyl]-1H-pyrazol-1-yl}propanoic acid] | 13 nM
CN(C)C(=O)c1cccc(C(CC(=O)O)c2nc(CCCCc3ccc4c(n3)NCCC4)cs2)c1 (single isomer, unassigned) [Example 118, 3-(3-(dimethylcarbamoyl)phenyl)-3-(4-(4-(5,6,7,8-tetrahydro-1,8-naphthyridin-2-yl)butyl)thiazol-2-yl)propanoic acid] | 1.9 nM
COc1ncc(C(CC(=O)O)n2nccc2CCCc2ccc3c(n2)NCCC3)cc1F (racemic) [Example 77, (±)-3-(5-fluoro-6-methoxypyridin-3-yl)-3-{5-[3-(5,6,7,8-tetrahydro-1,8-naphthyridin-2-yl)propyl]-1H-pyrazol-1-yl}propanoic acid] | 18 nM
CN(C)c1ccc(C(CC(=O)O)c2nc(CCCc3ccc4c(n3)NCCC4)cs2)cn1 (single isomer, unassigned) [Example 133, 3-(6-(dimethylamino)pyridin-3-yl)-3-(4-(3-(5,6,7,8-tetrahydro-1,8-naphthyridin-2-yl)propyl)thiazol-2-yl)propanoic acid] | 86 nM
Cc1ncc([C@@H](CC(=O)O)n2cc(F)c(CCCc3ccc4c(n3)NCCC4)n2)cn1 [Example 114, (R)-3-(4-fluoro-3-(3-(5,6,7,8-tetrahydro-1,8-naphthyridin-2-yl)propyl)-1H-pyrazol-1-yl)-3-(2-methylpyrimidin-5-yl)propanoic acid] | 4800 nM
COc1ccc(C(CC(=O)O)c2nc(CCCCc3ccc4c(n3)NCCC4)c(C)o2)cc1F (single isomer, unassigned) [Example 180, 3-(3-fluoro-4-methoxyphenyl)-3-(5-methyl-4-(4-(5,6,7,8-tetrahydro-1,8-naphthyridin-2-yl)butyl)oxazol-2-yl)propanoic acid] | 250 nM
Cc1ncc(C(CC(=O)O)n2ccc(CCCc3ccc4c(n3)NCCCC4)n2)cn1 (racemic) [Example 96, (±)-3-(2-methylpyrimidin-5-yl)-3-(3-(3-(6,7,8,9-tetrahydro-5H-pyrido[2,3-b]azepin-2-yl)propyl)-1H-pyrazol-1-yl)propanoic acid] | 17 nM
COc1ccc(C(CC(=O)O)c2nc(CCCCc3ccc4c(n3)NCCC4)cn2C)cc1F (single isomer, unassigned) [Example 168, 3-(3-fluoro-4-methoxyphenyl)-3-(1-methyl-4-(4-(5,6,7,8-tetrahydro-1,8-naphthyridin-2-yl)butyl)-1H-imidazol-2-yl)propanoic acid] | 91 nM
COc1ccc(C(CC(=O)O)c2ncc(CCCCc3ccc4c(n3)NCCC4)s2)cn1 (single isomer, unassigned) [Example 18, 3-(6-Methoxypyridin-3-yl)-3-(5-(4-(5,6,7,8-tetrahydro-1,8-naphthyridin-2-yl)butyl)thiazol-2-yl)propanoic acid] | 6.7 nM
Cc1ncc(C(CC(=O)O)n2nccc2CCCc2ccc3c(n2)NCCCC3)cn1 (racemic) [Example 99, (±)-3-(2-methylpyrimidin-5-yl)-3-(5-(3-(6,7,8,9-tetrahydro-5/Z-pyrido[2,3-b]azepin-2-yl)propyl)-1H-pyrazol-1-yl)propanoic acid] | 410 nM
Cc1cc(C)n(C(CC(=O)O)c2nc(CCCc3ccc4c(n3)NCCC4)cs2)n1 (single isomer, unassigned) [Example 162, 3-(3,5-dimethyl-1H-pyrazol-1-yl)-3-(4-(3-(5,6,7,8-tetrahydro-1,8-naphthyridin-2-yl)propyl)thiazol-2-yl)propanoic acid] | 71 nM
Cc1cc(C)n(C(CC(=O)O)c2nc(CCCc3ccc4c(n3)NCCC4)cs2)n1 (single isomer, unassigned) [Example 163, 3-(3,5-dimethyl-1H-pyrazol-1-yl)-3-(4-(3-(5,6,7,8-tetrahydro-1,8-naphthyridin-2-yl)propyl)thiazol-2-yl)propanoic acid] | 220 nM
COc1ccc(C(CC(=O)O)c2ncc(CCCCc3ccc4c(n3)NCCC4)n2C)cn1 (single isomer, unassigned) [Example 165, 3-(6-methoxypyridin-3-yl)-3-(1-methyl-5-(4-(5,6,7,8-tetrahydro-1,8-naphthyridin-2-yl)butyl)-1H-imidazol-2-yl)propanoic acid] | 27 nM
O=C(NC(Cc1cnn(CCCc2ccc3c(n2)NCCC3)c1)C(=O)O)OCc1ccccc1 (racemic) [Example 6, (±)-2-(((Benzyloxy)carbonyl)amino)-3-(1-(3-(5,6,7,8-tetrahydro-1,8-naphthyridin-2-yl)propyl)-1N-pyrazol-4-yl)propanoic acid] | 80 nM
COc1ccc(C(CC(=O)O)c2ccn(CCCc3ccc4c(n3)NCCC4)n2)cn1 (stereo not drawn) [Example 113, 3-(6-methoxypyridin-3-yl)-3-(1-(3-(5,6,7,8-tetrahydro-1,8-naphthyridin-2-yl)propyl)-1H-pyrazol-3-yl)propanoic acid] | 35 nM
COc1ccc(C(CC(=O)O)c2nc(CCCC3CCc4cccnc4N3)cs2)cn1 (single isomer, unassigned) [Example 155, 3-(6-methoxypyridin-3-yl)-3-(4-(3-(1,2,3,4-tetrahydro-1,8-naphthyridin-2-yl)propyl)thiazol-2-yl)propanoic acid] | 8.1 nM
